pEC50, pIC50: −log10 of the molar value. Where two headings read alike, the source gives them in different places.

Assay [1] addresses T1, HCV NS5B RdRp genotype 1b (Hepatitis C virus genotype 1b, UniProt Q9WMX2).
T1 construct: The protein was expressed with an 18 amino acid C-terminal truncation to enhance the solubility; made in house; host or cells: E. coli BL21(DE3), pET21a vector
The assay is described as follows: Modified HCV NS5B RdRp enzyme assay (preincubation protocol). It counts as biochemical. The note with it: HCV NS5B genotype 1b. How it is done:
HCVNS5B RdRp cloning, expression, and purification. The cDNA encoding the NS5B protein of HCV, genotype 1b, was cloned into the pET21a expression vector. The protein was expressed with an 18 amino acid C-terminal truncation to enhance the solubility. The E. coli competent cell line BL21(DE3) was used for expression of the protein. Cultures were grown at 37° C. for ˜4 hours until the cultures reached an optical density of 2.0 at 600 nm. The cultures were cooled to 20° C. and induced with 1 mM IPTG. Fresh ampicillin was added to a final concentration of 50 μg/ml and the cells were grown overnight at 20° C.
Cell pellets (3L) were lysed for purification to yield 15-24 mgs of purified NS5B. The lysis buffer consisted of 20 mM Tris-HCl, pH 7.4, 500 mM NaCl, 0.5% triton X-100, 1 mM DTT, 1 mM EDTA, 20% glycerol, 0.5 mg/ml lysozyme, 10 mM MgCl2, 15 ug/ml deoxyribonuclease I, and Complete TM protease inhibitor tablets (Roche). After addition of the lysis buffer, frozen cell pellets were resuspended using a tissue homogenizer. To reduce the viscosity of the sample, aliquots of the lysate were sonicated on ice using a microtip attached to a Branson sonicator. The sonicated lysate was centrifuged at 100,000×g for 1 hr at 4° C. and filtered through a 0.2 μm filter unit (Corning).
The protein was purified using three sequential chromatography steps: Heparin sepharose CL-6B, polyU sepharose 4B, and Hitrap SP sepharose (Pharmacia). The chromatography buffers were identical to the lysis buffer but contained no lysozyme, deoxyribonuclease I, MgCl2 or protease inhibitor and the NaCl concentration of the buffer was adjusted according to the requirements for charging the protein onto the column. Each column was eluted with a NaCl gradient which varied in length from 5-50 column volumes depending on the column type. After the final chromatography step, the resulting purity of the enzyme is >90% based on SDS-PAGE analysis. The enzyme was aliquoted and stored at −80° C.
Standard HCVNS5B RdRp enzyme assay. HCV RdRp genotype 1b assays were run in a final volume of 60 μl in 96 well plates (Costar 3912). The assay buffer is composed of 20 mM Hepes, pH 7.5, 2.5 mM KCl, 2.5 mM MgCl2, 1 mM DTT, 1.6 U RNAse inhibitor (Promega N2515), 0.1 mg/ml BSA (Promega R3961), and 2% glycerol. All compounds were serially diluted (3-fold) in DMSO and diluted further in water such that the final concentration of DMSO in the assay was 2%. HCV RdRp genotype 1b enzyme was used at a final concentration of 28 nM. A polyA template was used at 6 nM, and a biotinylated oligo-dT12 primer was used at 180 nM final concentration. Template was obtained commercially (Amersham 27-4110). Biotinylated primer was prepared by Sigma Genosys. 3H-UTP was used at 0.6 μCi (0.29 μM total UTP). Reactions were initiated by the addition of enzyme, incubated at 30° C. for 60 min, and stopped by adding 25 μl of 50 mM EDTA containing SPA beads (4 μg/μl, Amersham RPNQ 0007). Plates were read on a Packard Top Count NXT after >1 hr incubation at room temperature.
Modified HCVNS5B RdRp enzyme assay. A modified enzyme assay was performed essentially as described for the standard enzyme assay except for the following: The biotinylated oligo dT12 primer was precaptured on streptavidin-coated SPA beads by mixing primer and beads in assay buffer and incubating at room temperature for one hour. Unbound primer was removed after centrifugation. The primer-bound beads were resuspended in 20 mM Hepes buffer, pH 7.5 and used in the assay at final concentrations of 20 nM primer and 0.67 μg/μl beads. Order of addition in the assay: enzyme (14 nM) was added to diluted compound followed by the addition of a mixture of template (0.2 nM), 3H-UTP (0.6 μCi, 0.29 μM), and primer-bound beads, to initiate the reaction; concentrations given are final. Reactions were allowed to proceed for 4 hours at 30° C.
IC50 values for compounds were determined using seven different [I]. […]

For another assay, the system named is HCV replicon cells. The assay is described as follows: HCV replicon FRET assay. It counts as cell-based. An excerpt: FRET Assay Preparation. To perform the HCV FRET screening assay, 96-well cell culture plates were used. The FRET peptide (Anaspec, Inc.) (Taliani et al., Anal. Biochem. 1996, 240, 60-67) contains a fluorescence donor, EDANS, near one end of the peptide and an acceptor, DABCYL, near the other end. The fluorescence of the peptide is quenched by […] resonance energy transfer (RET) between the donor and the acceptor, but as the NS3 protease cleaves the peptide the products are released from RET quenching and the fluorescence of the donor becomes apparent. The assay reagent was made as follows: 5× cell Luciferase cell culture lysis reagent from Promega (#E153A) diluted to 1× with dH2O, NaCl added to 150 mM final, the FRET peptide diluted to 20 uM final from a 2 mM stock.
To prepare plates, HCV replicon cells, with or without a Renilla luciferase reporter gene, were trypsinized and placed into each well of a 96-well plate with titrated test compounds added in columns 3 through 12; columns 1 and 2 contained a control compound (HCV protease inhibitor), and the bottom row contained cells without compound. The plates were then placed in a CO2 incubator at 37° C.
Assays. Subsequent to addition of the test compounds described above (FRET Assay Preparation), at various times the plate was removed and Alamar blue solution (Trek Diagnostics, #00-100) was added per well as a measure of cellular toxicity. After reading in a Cytoflour 4000 instrument (PE Biosystems), plates were rinsed with PBS and then used for FRET assay by the addition of 30 ul of the FRET peptide assay reagent described above (FRET Assay Preparation) per well. The plate was then placed into the Cytoflour 4000 instrument which had been set to 340 excite/490 emission, automatic mode for 20 cycles and the plate read in a kinetic mode. Typically, the signal to noise using an endpoint analysis after the reads was at least three-fold. Alternatively, after Alamar blue reading, plates were rinsed with PBS, 50 ul of DMEM (high glucose) without phenol red was added and plates were then used for luciferase assay using the Promega Dual-Glo Luciferase Assay System.
Compound analysis was determined by quantification of the relative HCV replicon inhibition and the relative cytotoxicity values. To calculate cytoxicity values, the average Alamar Blue fluorescence signals from the control wells were set as 100% non-toxic. The individual signals in each of the compound test wells were then divided by the average control signal and multiplied by 100% to determine […]. To calculate the HCV replicon inhibition values, an average background value was obtained from the two wells containing the highest amount of HCV protease inhibitor at the end of the assay period. These numbers were similar to those obtained from naïve Huh-7 cells.
The background numbers were then subtracted from the average signal obtained from the control wells and this number was used as 100% activity. The individual signals in each of the compound test wells were then divided by the averaged control values after background subtraction and multiplied by 100% to determine percent activity. EC50 values for a protease inhibitor titration were calculated as the concentration which caused a 50% reduction in FRET or luciferase activity. The two numbers generated for the compound plate, percent cytoxicity and percent activity were used to determine compounds of interest for further analysis.
In general terms: Replicon systems follow genome replication, usually without infectious particles.

The mark [2] stands for this setting: Hepatitis C virus, FRET assay, HCV replicon cells, read-out: EC50.

T1 sequence (Q9WMX2 2420-2992): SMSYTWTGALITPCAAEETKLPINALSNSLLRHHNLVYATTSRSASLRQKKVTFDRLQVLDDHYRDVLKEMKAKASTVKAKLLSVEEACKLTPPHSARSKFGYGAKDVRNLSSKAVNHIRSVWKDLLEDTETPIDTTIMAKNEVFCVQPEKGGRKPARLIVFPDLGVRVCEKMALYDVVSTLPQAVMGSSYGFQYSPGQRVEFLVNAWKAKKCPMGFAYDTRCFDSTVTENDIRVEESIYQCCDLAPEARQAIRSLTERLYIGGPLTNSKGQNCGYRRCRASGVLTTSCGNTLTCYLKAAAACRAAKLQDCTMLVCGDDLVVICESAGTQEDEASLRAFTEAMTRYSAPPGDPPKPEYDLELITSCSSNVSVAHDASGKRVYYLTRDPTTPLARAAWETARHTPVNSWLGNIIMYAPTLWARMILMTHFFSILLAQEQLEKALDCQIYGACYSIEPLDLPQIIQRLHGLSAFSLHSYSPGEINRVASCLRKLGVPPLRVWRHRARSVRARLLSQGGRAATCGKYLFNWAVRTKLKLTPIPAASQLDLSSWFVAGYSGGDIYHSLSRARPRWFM

With `C[C@@H]1CN(C(=O)C23CC2c2cc(O)ccc2-c2c(C4CCCCC4)c4ccc(C(=O)NS(=O)(=O)N(C)C)cc4n2C3)C[C@H](C)N1C` (stereo partly shown), the pIC50 (usually the IC50 on a negative log10 scale, so that one unit is a factor of ten) in assay [1] was 6.30 to 9.00. In addition, the pEC50 (usually the negative decadic logarithm of the EC50, by convention in mol/L) in the assay with HCV replicon cells (setting [2]) is 6.30 to 9.00.
As for `C[C@@H]1CN(C(=O)C23CC2c2cc(OCc4ccccc4)ccc2-c2c(C4CCCCC4)c4ccc(C(=O)NS(=O)(=O)N(C)C)cc4n2C3)C[C@H](C)N1C` (stereo partly shown), in assay [1], the negative-log IC50 (pIC50) is 6.30 to 9.00. For the same molecule, the pEC50 in the assay on HCV replicon cells (setting [2]) was 6.30 to 9.00.
On to `COc1ccc2c(c1)C1CC1(C(=O)N1C[C@@H](C)N(C(C)C)[C@@H](C)C1)Cn1c-2c(C2CCCCC2)c2ccc(C(=O)NS(=O)(=O)N(C)C)cc21` (stereo partly shown), for which the negative logarithm of the IC50 (pIC50) in assay [1] was 6.30 to 9.00. In addition, in the assay on HCV replicon cells (setting [2]), the pEC50 is 6.30 to 9.00.
The molecule `COc1ccc2c(c1)C1CC1(C(=O)N1C[C@@H](C)N(C)[C@@H](C)C1)Cn1c-2c(C2CCCCC2)c2ccc(C(=O)NS(=O)(=O)C3CC3)cc21` (stereo partly shown) showed a pIC50 in assay [1] of 6.30 to 9.00. Further, the pEC50 with HCV replicon cells (setting [2]) was 6.30 to 9.00.
In the case of `COc1ccc2c(c1)C1CC1(C(=O)N1C[C@@H](C)N(C)[C@@H](C)C1)Cn1c-2c(C2CCCCC2)c2ccc(C(=O)NS(=O)(=O)N(C)C)cc21` (stereo partly shown), in assay [1], the negative-log IC50 (pIC50) is 6.30 to 9.00. This molecule also gave a negative-log EC50 (pEC50) with HCV replicon cells (Hepatitis C virus) of 6.30 to 9.00.
`COc1ccc2c(c1)[C@@H]1C[C@]1(C(=O)N1C[C@@H](C)N(C)[C@@H](C)C1)Cn1c-2c(C2CCCCC2)c2ccc(C(=O)NS(=O)(=O)N(C)C)cc21` had a pIC50 in assay [1] of 6.30 to 9.00. In the assay with HCV replicon cells (Hepatitis C virus), the negative logarithm of the EC50 (pEC50) is 6.30 to 9.00.
`COc1ccc2c(c1)[C@H]1C[C@@]1(C(=O)N1C[C@@H](C)N(C)[C@@H](C)C1)Cn1c-2c(C2CCCCC2)c2ccc(C(=O)NS(=O)(=O)N(C)C)cc21` showed a pIC50 in assay [1] of 6.30 to 9.00. For the same molecule, in the assay on HCV replicon cells (Hepatitis C virus), the pEC50 is 6.30 to 9.00.
Consider `COc1cccc2c1C1CC1(C(=O)N1C[C@@H](C)N(C)[C@@H](C)C1)Cn1c-2c(C2CCCCC2)c2ccc(C(=O)NS(=O)(=O)N(C)C)cc21` (stereo partly shown), for which the negative logarithm of the IC50 (pIC50) in assay [1] was 6.30 to 9.00. Further, the negative logarithm of the EC50 (pEC50) in the assay with HCV replicon cells (setting [2]) is 6.30 to 9.00.
In assay [1], `COc1ccc2c(c1)C1CC1(C(=O)N1C[C@@H](C)N(C(C)=O)[C@@H](C)C1)Cn1c-2c(C2CCCCC2)c2ccc(C(=O)NS(=O)(=O)N(C)C)cc21` (stereo partly shown) had a pIC50 of 6.30 to 9.00. In addition, the pEC50 with HCV replicon cells (Hepatitis C virus) was 6.30 to 9.00.
In assay [1], `COc1ccc2c(c1)C1CC1(C(=O)N1C[C@@H](C)N(C)[C@@H](C)C1)Cn1c-2c(C2CCCCC2)c2ccc(C(=O)NS(=O)(=O)N3CCC3)cc21` (stereo partly shown) had a negative-log IC50 (pIC50) of 6.30 to 9.00. In the assay on HCV replicon cells (setting [2]), the negative logarithm of the EC50 (pEC50) is 6.30 to 9.00.
Consider `COc1ccc2c(c1)C1CC1(C(=O)N1[C@H](C)CN(Cc3ccccc3)C[C@@H]1C)Cn1c-2c(C2CCCCC2)c2ccc(C(=O)NS(=O)(=O)N(C)C)cc21` (stereo partly shown), for which the negative-log IC50 (pIC50) in assay [1] is 5.00 to 6.00. For the same molecule, the pEC50 with HCV replicon cells (setting [2]) was 6.00 to 6.30.
For `COc1ccc2c(c1)C1CC1(C(=O)N1C[C@@H](C)N(C)[C@@H](C)C1)Cn1c-2c(C2CCCCC2)c2ccc(C(=O)NS(=O)(=O)C(C)C)cc21` (stereo partly shown), the negative-log IC50 (pIC50) in assay [1] was 6.30 to 9.00. Further, the pEC50 in the assay on HCV replicon cells (setting [2]) is 6.30 to 9.00.
The molecule `COc1ccc2c(c1)C1CC1(C(=O)N1C[C@@H](C)N(C)[C@@H](C)C1)Cn1c-2c(C2CCCCC2)c2ccc(C(=O)NS(C)(=O)=O)cc21` (stereo partly shown) [drawing 31] gave a pIC50 in assay [1] of 6.30 to 9.00. Besides, the pEC50 with HCV replicon cells (setting [2]) was 6.30 to 9.00.
In assay [1], `COc1ccc2c(c1)C1CC1(C(=O)N1C[C@@H](C)N(C)[C@@H](C)C1)Cn1c-2c(C2CCCCC2)c2ccc(C(=O)NS(C)(=O)=O)cc21` (stereo partly shown) [drawing 34] gave a negative logarithm of the IC50 (pIC50) of 6.30 to 9.00. The pEC50 in the assay on HCV replicon cells (FRET assay, HCV replicon cells, read-out: EC50) was 6.30 to 9.00.
